Measured values as given in PMC4838890, “Dynamic and flexible H3K9me3 bridging via HP1β dimerization establishes a plastic state of condensed chromatin” (Nature Communications, 2016).
“Also recorded” adds a separate entry of the source. Where two headings read alike, the source gives them in different places.

Columns and labels:
[1] = target: CSD-CSD interaction of hHP1β monomers; experiment: ITC dilution, CSD-CSD dimerization; assay type: binding, human; conditions: ITC dilution experiments, not shown
[2] = test system: immobilized H3 tail peptides, mono- and oligonucleosomes; experiment: Pull-down, H3 tail peptides, mono- and oligonucleosomes; assay type: binding, Xenopus laevis; conditions: immobilized on streptavidin beads, 4°C
Experimental: 4 μg C-terminally biotinylated histone H3 peptides (aa 1–20) or 1 μg of biotinylated nucleosomes or oligonucleosomal arrays were incubated with 40 μl Streptavidin MagnaSphere Paramagmetic beads (Promega, Mannheim, Germany) in 350 μl binding buffer (10 mM triethanolamine (pH 7.5), 150 mM NaCl, 0.1 mM EDTA, 0.1% (v/v) Triton-X100) supplemented with 1 mg ml^−1 BSA for 2.5 h at RT. Unbound material was removed by three washes with 0.5 ml binding buffer. Charged beads were then incubated with 100 pmol recombinant protein in 350 μl binding buffer for 1 h at 4°C on a rotator. Beads were washed three times with 0.5 ml binding buffer for 3 min per wash at 4°C. Bound proteins were eluted in 20 μl 1 × SDS loading buffer and by boiling for 5 min.
(§1) Supplementary Table 1: Summary of conditions used in the different experiments of this study. experiment result modification template Temp. [NaCl] [MgCl2] […]
(§2) chromatin Fig. 1e,f; Fig. S1f-h; H3K9me3 oligo- 4 150 5 coprecipitation Fig. S2b nucleosomes
(§3) Fig. S7d,f; Fig.S9c nucleosomes […]
(§4) chromatin sedimentation Fig. 4a; H3K9me3 oligo- 4 150 0
(§5) (single point) Fig. S3b nucleosomes […]
(§6) chromatin sedimentation. oligo-(titration) Fig. 3a H3K9me3 nucleosomes 4 150 0

[3] = Multimerization beyond dimer; assay type: physicochemical; conditions: dynamic light scattering, SAXS, protein cross-linking, nuclear magnetic resonance
H3KC9me3 peptide = experiment: ITC, H3KC9me3 peptide; assay type: binding; conditions: for Kd: ITC, pH 7.5, 25°C, read-out: Kd (apparent dissociation constant)
Experimental: ITC measurements were performed on a iTC200 calorimeter (Microcal, Malvern, UK) at 25°C in binding buffer (10 mM triethanolamine (pH 7.5), 20 or 150 mM NaCl, 0.1 mM EDTA). Reaction heats were recorded by sequences of 37 injections of 1.8 mM hHP1β, spaced at 120 s intervals, into 250 μl of 60 μM H3 peptides, nucleosomes or oligonucleosomal arrays under constant stirring at 1,000 r.p.m. (injection #1–10: 0.5 μl each; injection #11–32: 1 μl each; injection #33–37: 2 μl each). Heats of dilution, obtained by the titration of hHP1β into buffer, were substracted from raw data before analysis. Raw data were integrated, normalized and the apparent heat change (Δq) of the reaction was plotted against the molecular ratio using the Origin software. For the determination of apparent enthalpy changes (ΔHapp), the molar association constant (KA), and the stoichiometry (n) of the interaction, non-linear least-square fitting of the Δq values was performed by the Origin software using a binding model of one set of identical binding sites.
as §1, §2, §3, §4, §5, §6

[4] = test system: H3K9me3 oligonucleosomal templates containing tailless H2A, H2B or H4; experiment: Chromatin sedimentation (clustering), H3K9me3 oligonucleosomes with tailless histones; assay type: biochemical, Xenopus laevis; conditions: 150 mM NaCl, n=3
Experimental: Figure 3 hHP1β clusters oligonuclesomal arrays in dependence of H3K9me3. (a) Oligonucleosomes (2.5 nM) were incubated with increasing concentrations of hHP1β WT or I161A at 150 mM NaCl. DNA remaining in the supernatant after centrifugation was incubated with EtBr and measured by fluorescence reading. Data were normalized to amounts in absence of added protein. Averages of three independent experiments are plotted; error bars represent s.d.; n=3. (b) Analysis of the hydrodynamic radius of oligonucleosomes (10 nM; DNA labelled with ATTO 610) in the presence of increasing concentrations of hHP1β WT or I161A by FCS at 150 mM NaCl. For details on experimental setup see Supplementary Fig. 3. Error bars represent s.d.; n=3. (c) Oligonucleosomes were reconstituted after mixing H3K9me0 and H3K9me3 octamers at different ratio. […] (d) Precipitation behaviour of oligonucleosomes (2.5 nM) was analysed at different concentrations of NaCl with hHP1β WT at saturating concentration. […] Precipitated material was analysed by western blotting. […] Complexes were fixed with 0.05% (v/v) glutaraldehyde, spotted on mica surfaces and analysed by scanning force microscopy. […] (h) Quantification of results representatively shown in g according to the classification on the top: A, extended; B, partially condensed; C, fully condensed; D; aggregates; n>50 for each condition. […]

Substance: hHP1β WT: recombinant human heterochromatin protein 1β (GenBank NM_001127228), 185 aa
- CSD-CSD dimerization strength [1]: nanomolar regime
- retention on H3K9me3 versus unmodified matrices [2]: retained much more efficiently on all three matrices in the presence of H3K9me3
- multimerization beyond CSD-mediated dimerization [3]: failed to detect any multimerization of hHP1β beyond CSD-mediated dimerization
- Kd (H3KC9me3 peptide; 20 mM NaCl): 11 ± 4 µM
- Kd (H3KC9me3 peptide; 150 mM NaCl): 21 ± 3 µM
- reduced binding to H3-tail peptide containing H3KC9me compared with methylated lysine (H3KC9me3 peptide; Table 1, ref [17]): sixfold reduced binding
- clustering of oligonucleosomes with tailless histones [4]: clustered H3K9me3 oligonucleosomes containing tailless H2A or H2B as efficiently as H3K9me3-oligonucleosomes containing WT core histones; also recorded: the effect on H3K9me3 oligonucleosomes containing tailless H4 was impaired
